Where two headings read alike, the source gives them in different places.
Legend:
[1] = Hoechst 33342 nuclear staining (48 h read-out); format: cell-based
Summary of the method: (§1)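 Adherent cells pre-spread 24 h before dosing, suspension cells dosed at seeding; compounds at 0.001 μM-10 μM final, 48 h at culture conditions. Hoechst 33342 (2-5 μg/ml) added for 30 min, then fluorescence microscopy scoring of apoptotic nuclear fraction and apoptosis-specific morphology, reported as scores A-D.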

tumor cells [2] = test: Hoechst 33342 nuclear staining (48 h read-out); format: cell-based
Summary of the method: as §1

[3] = MTS proliferation assay (72 h read-out); format: cell-based; conditions: Homo sapiens, MRC5 cells
Summary of the method: (§2)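 Viability was read by MTS absorbance at 492 nm after 3 h with reagent. Before that, cells plated a day earlier at 1.5×10^3–10^4 per well had been incubated with test compound at final concentrations of 0.001–10 μM for 72 h; activity is given as category scores A–D.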

tumor cells [4] = test: MTS proliferation assay (72 h read-out); format: cell-based
Summary of the method: as §2

[5] = Mitochondrial membrane potential, JC-1 (read-out 48 h); format: cell-based; conditions: PBL, JC-1, 48 h
Summary of the method: (§3)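 Tumor cells were treated with test compounds (adherent cells after 24 h of attachment, suspension cells immediately), medium holding up to 5% DMSO. After 48 h, JC-1 (2-5 μg/ml in added medium) was applied for 30 min. Fluorescence microscopy (FITC/TRITC filters) scored the fraction of cells with dissipated mitochondrial membrane potential as categories A-D.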

tumor cells [6] = test: as above; format: cell-based; conditions: JC-1, 48 h
Summary of the method: as §3

HeLa = test: Colony Forming Units (read-out 6 days), HeLa; format: cell-based, human; conditions: Homo sapiens, 144 h, colonies containing more than 30 cells, read-out: Colony Forming Units, score based on IC50, HeLa
Description: (§4) Appropriate numbers of cells (100-150 cells, dependent on the cell type) are being seeded out in 1 ml complete medium into 6-well plates and allowed to attach for 48 h. The compounds are added after 48 h in 500 μl solution. The concentrations are in the range of 0.001 μM-3 μM. Control plates receive the same volume of medium containing the appropriate amount of DMSO. The plates are incubated for 5-7 days at cell culture conditions and subsequently scored for growth of colonies (containing more than 30 cells) by using a microscope.

H460 = test: Colony Forming Units (read-out 6 days), H460; format: cell-based, human; conditions: Homo sapiens, NCI-H460, 144 h, colonies containing more than 30 cells, read-out: Colony Forming Units, score based on IC50, H460
Description: as §4

[7] = Homo sapiens, MRC5 cells, read-out: Hoechst 33342 nuclear staining EC50, MRC5
[8] = Homo sapiens, HeLa cells, read-out: Hoechst 33342 nuclear staining EC50, HeLa
[9] = Homo sapiens, Jurkat cells, read-out: Hoechst 33342 nuclear staining EC50, Jurkat
[10] = Jily cells, read-out: Hoechst 33342 nuclear staining EC50, Jily
[11] = Homo sapiens, HT-1080, HT1080 cells, read-out: MTS proliferation assay IC50, HT1080
[12] = Homo sapiens, HeLa cells, read-out: MTS proliferation assay IC50, HeLa
[13] = Homo sapiens, Jurkat cells, read-out: MTS proliferation assay IC50, Jurkat
[14] = Jily cells, read-out: MTS proliferation assay IC50, Jily
[15] = Homo sapiens, HeLa cells, read-out: Mitochondrial membrane potential (read-out 48 h) HeLa
[16] = Homo sapiens, Jurkat cells, read-out: Mitochondrial membrane potential (read-out 48 h) Jurkat
[17] = Homo sapiens, MCF7 cells, read-out: Mitochondrial membrane potential (read-out 48 h) MCF7
[18] = Jily cells, read-out: Mitochondrial membrane potential (read-out 48 h) Jily
[19] = PBL, read-out: Hoechst 33342 nuclear staining EC50, PBL

Compound	EC50 (tumor cells [2]; [8])	EC50 (tumor cells [2]; [9])	EC50 (tumor cells [2]; [10])	IC50 (tumor cells [4]; [11])	IC50 (tumor cells [4]; [12])	IC50 (tumor cells [4]; [13])	IC50 (tumor cells [4]; [14])	EC50 [5]	EC50 (tumor cells [6]; [15])	EC50 (tumor cells [6]; [16])	EC50 (tumor cells [6]; [17])	EC50 (tumor cells [6]; [18])	IC50 (HeLa)	IC50 (H460)	melting point	EC50 [1, 19]	EC50 [1, 7]	IC50 [3]
CC(C)Oc1ccccc1C(=O)c1oc2ccc(Cl)cc2c1N [Example 9]	100 to 1000 nM	10 to 100 nM	100 to 1000 nM	10 to 100 nM	100 to 1000 nM	10 to 100 nM	10 to 100 nM	> 1000 nM	100 to 1000 nM	10 to 100 nM	100 to 1000 nM	100 to 1000 nM	10 to 100 nM	10 to 100 nM	110 °C		100 to 1000 nM	100 to 1000 nM
CCCOc1ccc(OC)cc1C(=O)c1oc2ccc(Cl)cc2c1N [Example 14]	10 to 100 nM	10 to 100 nM	10 to 100 nM	10 to 100 nM	10 to 100 nM	< 10 nM	< 10 nM	> 1000 nM	10 to 100 nM	10 to 100 nM	10 to 100 nM	10 to 100 nM	10 to 100 nM	10 to 100 nM	95 to 97 °C		10 to 100 nM	10 to 100 nM
COc1ccc(OC(C)C)c(C(=O)c2oc3ccc(Cl)cc3c2N)c1 [Example 15]	100 to 1000 nM	10 to 100 nM	10 to 100 nM	10 to 100 nM	100 to 1000 nM	10 to 100 nM	10 to 100 nM	> 1000 nM	100 to 1000 nM	10 to 100 nM	100 to 1000 nM	100 to 1000 nM	10 to 100 nM	10 to 100 nM	131 to 132 °C		100 to 1000 nM	10 to 100 nM
CCOc1ccc(F)cc1C(=O)c1oc2nc(C)ccc2c1N [Example 29]	10 to 100 nM	10 to 100 nM	10 to 100 nM	< 10 nM	10 to 100 nM	< 10 nM	< 10 nM	> 1000 nM	10 to 100 nM	10 to 100 nM	10 to 100 nM	10 to 100 nM	10 to 100 nM	10 to 100 nM	152 to 156 °C	> 1000 nM	100 to 1000 nM	10 to 100 nM
CCOc1ccc(C)cc1C(=O)COc1ccc(Cl)cc1C#N [Example 144]	100 to 1000 nM	10 to 100 nM	10 to 100 nM	100 to 1000 nM	100 to 1000 nM	10 to 100 nM	10 to 100 nM	> 1000 nM	100 to 1000 nM	10 to 100 nM	100 to 1000 nM				144 to 146 °C	> 1000 nM	100 to 1000 nM	100 to 1000 nM

Second part, led by results:

EC50 (tumor cells [2]; [8])	EC50 (tumor cells [2]; [9])	EC50 (tumor cells [2]; [10])	IC50 (tumor cells [4]; [11])	IC50 (tumor cells [4]; [12])	IC50 (tumor cells [4]; [13])	IC50 (tumor cells [4]; [14])	EC50 [5]	EC50 (tumor cells [6]; [15])	EC50 (tumor cells [6]; [16])	EC50 (tumor cells [6]; [17])	EC50 (tumor cells [6]; [18])	IC50 (HeLa)	IC50 (H460)	melting point	EC50 [1, 19]	Compound	EC50 [1, 7]	IC50 [3]
< 10 nM	< 10 nM	< 10 nM	< 10 nM	10 to 100 nM	< 10 nM	< 10 nM	> 1000 nM	10 to 100 nM	< 10 nM	10 to 100 nM	< 10 nM	10 to 100 nM	< 10 nM	124 to 125 °C		CCOc1ccc(OC)cc1C(=O)c1oc2ccc(Cl)cc2c1N [Example 12]	100 to 1000 nM	< 10 nM
< 10 nM	< 10 nM	< 10 nM	< 10 nM	< 10 nM	< 10 nM	< 10 nM	> 1000 nM	< 10 nM	< 10 nM	< 10 nM	< 10 nM	< 10 nM	< 10 nM	132 to 134 °C	> 1000 nM	CCOc1ccc(F)cc1C(=O)c1oc2ccc(Cl)cc2c1N [Example 18]	< 10 nM	< 10 nM
